Experimental data: BigSolDB 2.1

O=C(/C=C/c1ccc(O)c(O)c1)O[C@H](Cc1ccc(O)c(O)c1)C(=O)O
solubility (mole fraction)
Details	293.15 K	298.15 K	303.15 K	308.15 K	313.15 K	318.15 K
in ethanol	0.268	0.295	0.328	0.366	0.408	0.455
in methanol	0.28	0.314	0.358	0.399	0.443	0.494
in water	0.0135	0.0151	0.0165	0.0185	0.0209	0.0248
